Assay results as given in US20190345150A1, “MICROBIOCIDAL OXADIAZOLE DERIVATIVES” (SYNGENTA PARTICIPATIONS AG, priority 2016, published 2019).

How the values were obtained:
[1] = system: Glomerella laqenarium (Colletotrichum laqenarium); test: Glomerella lagenarium liquid culture / cucumber / preventative (anthracnose); format: cell-based; conditions: 20 ppm in the applied formulation, liquid culture in PDB, growth inhibition measured photometrically 3 to 4 days after application, compared to untreated control, read-out: disease control
Protocol: Mycelia fragments or conidia suspensions of a fungus prepared either freshly from liquid cultures of the fungus or from cryogenic storage, are directly mixed into nutrient broth. DMSO solutions of the test compound (max. 10 mg/ml) are diluted with 0.025% Tween20 by a factor of 50 and 10 μl of this solution is pipetted into a microtiter plate (96-well format). The nutrient broth containing the fungal spores/mycelia fragments is then added to give an end concentration of the tested compound. The test plates are incubated in the dark at 24° C. and 96% relative humidity. The inhibition of fungal growth is determined photometrically after 2 to 7 days, depending on the pathosystem, and percent antifungal activity relative to the untreated check is calculated. Conidia of the fungus from cryogenic storage are directly mixed into nutrient broth (PDB—potato dextrose broth). After placing a (DMSO) solution of test compound into a microtiter plate (96-well format), the nutrient broth containing the fungal spores is added. The test plates are incubated at 24° C. and the inhibition of growth is measured photometrically 3 to 4 days after application.

[2] = system: Puccinia recondita f. Sp. Tritici; test: Puccinia recondita f. sp. tritici / wheat / leaf disc preventative (brown rust); format: in vivo; conditions: foliar, 200 ppm in the applied formulation, wheat leaf segments cv. Kanzler, preventative (inoculated 1 day after application), compared to untreated control, read-out: disease control
Protocol: Leaf disks or leaf segments of various plant species are cut from plants grown in a greenhouse. The cut leaf disks or segments are placed in multiwell plates (24-well format) onto water agar. The leaf disks are sprayed with a test solution before (preventative) or after (curative) inoculation. Compounds to be tested are prepared as DMSO solutions (max. 10 mg/ml) which are diluted to the appropriate concentration with 0.025% Tween20 just before spraying. The inoculated leaf disks or segments are incubated under defined conditions (temperature, relative humidity, light, etc.) according to the respective test system. A single evaluation of disease level is carried out 3 to 14 days after inoculation, depending on the pathosystem. Percent disease control relative to the untreated check leaf disks or segments is then calculated. Wheat leaf segments cv. Kanzler were placed on agar in multiwell plates (24-well format) and sprayed with the formulated test compound diluted in water. The leaf disks were inoculated with a spore suspension of the fungus 1 day after application. The inoculated leaf segments were incubated at 19° C. and 75% relative humidity (rh) under a light regime of 12 hours light/12 hours darkness in a climate cabinet and the activity of a compound was assessed as percent disease control compared to untreated when an appropriate level of disease damage appears in untreated check leaf segments (7 to 9 days after application).

[3] = system: Puccinia recondita f. Sp. Tritici; test: Puccinia recondita f. sp. tritici / wheat / leaf disc curative (brown rust); format: in vivo; conditions: foliar, 24 h, 200 ppm in the applied formulation, wheat leaf segments cv. Kanzler, curative (applied 1 day after inoculation), compared to untreated control, read-out: disease control
Protocol: Leaf disks or leaf segments of various plant species are cut from plants grown in a greenhouse. The cut leaf disks or segments are placed in multiwell plates (24-well format) onto water agar. The leaf disks are sprayed with a test solution before (preventative) or after (curative) inoculation. Compounds to be tested are prepared as DMSO solutions (max. 10 mg/ml) which are diluted to the appropriate concentration with 0.025% Tween20 just before spraying. The inoculated leaf disks or segments are incubated under defined conditions (temperature, relative humidity, light, etc.) according to the respective test system. A single evaluation of disease level is carried out 3 to 14 days after inoculation, depending on the pathosystem. Percent disease control relative to the untreated check leaf disks or segments is then calculated. Wheat leaf segments cv. Kanzler are placed on agar in multiwell plates (24-well format). The leaf segments are then inoculated with a spore suspension of the fungus. Plates were stored in darkness at 19° C. and 75% relative humidity. The formulated test compound diluted in water was applied 1 day after inoculation. The leaf segments were incubated at 19° C. and 75% relative humidity under a light regime of 12 hours light/12 hours darkness in a climate cabinet and the activity of a compound was assessed as percent disease control compared to untreated when an appropriate level of disease damage appears in untreated check leaf segments (6 to 8 days after application).

| melting point [°C] | SMILES | inhibition of growth at 20 ppm [1] [%] | pest or weed control at 200 ppm [2] [%] | pest or weed control at 200 ppm [3] [%] |
| --- | --- | --- | --- | --- |
|  | Cc1cccc(OC(C)c2ccc(-c3noc(C(F)(F)F)n3)cc2)n1 (stereo not shown) [Compound 1.24, 3-[4-[1-[(6-methyl-2-pyridyl)oxy]ethyl]phenyl]-5-(trifluoromethyl)-1,2,4-oxadiazole] | ≥ 80 |  |  |
| 100 to 102 | CNC(=O)OCc1ccc(-c2noc(C(F)(F)F)n2)cc1 [Compound 3.7, [4-[5-(trifluoromethyl)-1,2,4-oxadiazol-3-yl]phenyl]methyl N-methylcarbamate] |  |  |  |
|  | CC(=O)OCc1ccc(-c2noc(C(F)(F)F)n2)cc1 [Compound 2.1, [4-[5-(trifluoromethyl)-1,2,4-oxadiazol-3-yl]phenyl]methyl acetate] | ≥ 80 | ≥ 80 |  |
| 174 to 176 | Fc1ccc(OCc2ccc(-c3noc(C(F)(F)F)n3)cc2)cc1 [Compound 1.6, 3-[4-[(4-fluorophenoxy)methyl]phenyl]-5-(trifluoromethyl)-1,2,4-oxadiazole] |  |  | ≥ 80 |
| 105 to 107 | FC(F)(F)c1nc(-c2ccc(COc3ccccc3)cc2)no1 [Compound 1.7, 3-[4-(phenoxymethyl)phenyl]-5-(trifluoromethyl)-1,2,4-oxadiazole] |  |  | ≥ 80 |
| 141 to 143 | Cc1ccc(OCc2ccc(-c3noc(C(F)(F)F)n3)cc2)nc1 [Compound 1.15, 3-[4-[(5-methyl-2-pyridyl)oxymethyl]phenyl]-5-(trifluoromethyl)-1,2,4-ioxadiazole] |  |  | ≥ 80 |
|  | CC(C)(C)C(=O)OCc1ccc(-c2noc(C(F)(F)F)n2)cc1 [Compound 2.3, [4-[5-(trifluoromethyl)-1,2,4-oxadiazol-3-yl]phenyl]methyl 2,2-dimethylpropanoate] | ≥ 80 |  |  |
|  | CON(C)C(=O)OCc1ccc(-c2noc(C(F)(F)F)n2)cc1 [Compound 3.4, [4-[5-(trifluoromethyl)-1,2,4-oxadiazol-3-yl]phenyl]methyl N-methoxy-N-methyl-carbamate] | ≥ 80 |  |  |
| 65 to 66 | Cc1cccc(OCc2cc(F)c(-c3noc(C(F)(F)F)n3)c(F)c2)n1 [Compound 1.25, 3-[2,6-difluoro-4-[(6-methyl-2-pyridyl)oxymethyl]phenyl]-5-(trifluoromethyl)-1,2,4-oxadiazole] | ≥ 80 |  |  |
| 48 to 52 | CC(C)=NOCc1ccc(-c2noc(C(F)(F)F)n2)cc1 [Compound 4.1, N-[[4-[5-(trifluoromethyl)-1,2,4-oxadiazol-3-yl]phenyl]methoxy]propan-2-imine] |  |  | ≥ 80 |
| 110 to 112 | CN(C(=O)OCc1ccc(-c2noc(C(F)(F)F)n2)cc1)c1ccccn1 [Compound 3.6, [4-[5-(trifluoromethyl)-1,2,4-oxadiazol-3-yl]phenyl]methyl N-methyl-N-(2-pyridyl)carbamate] |  |  |  |
| 91 to 94 | Cc1cccc(OCc2cc(F)c(-c3noc(C(F)(F)F)n3)cc2F)n1 [Compound 1.27, 3-[2,5-difluoro-4-[(6-methyl-2-pyridyl)oxymethyl]phenyl]-5-(trifluoromethyl)-1,2,4-oxadiazole] |  |  |  |
|  | FC(F)(F)c1nc(-c2ccc(COc3ccc(Br)nn3)cc2)no1 [Compound 1.21, 3-[4-[(6-bromopyridazin-3-yl)oxymethyl]phenyl]-5-(trifluoromethyl)-1,2,4-oxadiazole] | ≥ 80 |  |  |
|  | CC(OC(=O)N(C)C)c1ccc(-c2noc(C(F)(F)F)n2)cc1 (stereo not shown) [Compound 3.5, 1-[4-[5-(trifluoromethyl)-1,2,4-oxadiazol-3-yl]phenyl]ethyl N,N-dimethylcarbamate] | ≥ 80 | ≥ 80 | ≥ 80 |
|  | Cc1nnc(OCc2ccc(-c3noc(C(F)(F)F)n3)cc2)o1 [Compound 1.20, 2-methyl-5-[[4-[5-(trifluoromethyl)-1,2,4-oxadiazol-3-yl]phenyl]methoxy]-1,3,4-oxadiazole] | ≥ 80 |  |  |
| 48 to 50 | CC(C)C(=O)OCc1ccc(-c2noc(C(F)(F)F)n2)cc1 [Compound 2.2, [4-[5-(trifluoromethyl)-1,2,4-oxadiazol-3-yl]phenyl]methyl 2-methylpropanoate] | ≥ 80 |  |  |
| 113 to 115 | Fc1c(COc2ccccc2)ccc(-c2noc(C(F)(F)F)n2)c1F [Compound 1.12, 3-[2,3-difluoro-4-(phenoxymethyl)phenyl]-5-(trifluoromethyl)-1,2,4-oxadiazole] |  |  |  |
| 66 to 68 | Fc1cccc(F)c1OCc1ccc(-c2noc(C(F)(F)F)n2)cc1 [Compound 1.10, 3-[4-[(2,6-difluorophenoxy)methyl]phenyl]-5-(trifluoromethyl)-1,2,4-oxadiazole] |  |  | ≥ 80 |
| 86 to 88 | FC(F)(F)c1nc(-c2ccc(COc3ccccn3)cc2)no1 [Compound 1.9, 3-[4-(2-pyridyloxymethyl)phenyl]-5-(trifluoromethyl)-1,2,4-oxadiazole] | ≥ 80 | ≥ 80 | ≥ 80 |
| 110 to 111 | CC1=NN(C)C(=O)C1=NOCc1ccc(-c2noc(C(F)(F)F)n2)cc1 [Compound 4.4, 2,5-dimethyl-4-[[4-[5-(trifluoromethyl)-1,2,4-oxadiazol-3-yl]phenyl]methoxyimino]pyrazol-3-one] | ≥ 80 |  |  |
|  | O=C(NCC(F)(F)F)OCc1ccc(-c2noc(C(F)(F)F)n2)cc1 [Compound 3.3, [4-[5-(trifluoromethyl)-1,2,4-oxadiazol-3-yl]phenyl]methyl N-(2,2,2-trifluoroethyl)carbamate] | ≥ 80 | ≥ 80 | ≥ 80 |
| 156 to 158 | N#Cc1ccc(OCc2ccc(-c3noc(C(F)(F)F)n3)cc2)nc1 [Compound 1.14, 6-[[4-[5-(trifluoromethyl)-1,2,4-oxadiazol-3-yl]phenyl]methoxy]pyridine-3-carbonitrile] | ≥ 80 | ≥ 80 |  |
|  | CC1(C)CC(OCc2cc(F)c(-c3noc(C(F)(F)F)n3)c(F)c2)=NO1 [Compound 1.26, 3-[4-[(5,5-dimethyl-4H-isoxazol-3-yl)oxymethyl]-2,6-difluoro-phenyl]-5-(trifluoromethyl)-1,2,4-oxadiazole] | ≥ 80 | ≥ 80 | ≥ 80 |
